Results reported in US9955691B2, “Macrocyclic picolinamides as fungicides” (DOW AGROSCIENCES LLC, priority 2014, dated 2018).

Experiments:
Format in all cases: in vivo
Conditions in all cases: 100 ppm, 1 DP (1 Day Protectant)
Rhyncosporium secalis = experiment: Fungicidal activity: Barley Scald (RHYNSE)
Protocol: Technical grades of materials were dissolved in acetone, which were then mixed with nine volumes of water containing 110 ppm Triton X-100. The fungicide solutions were applied onto wheat seedlings using an automated booth sprayer to run-off. All sprayed plants were allowed to air dry prior to further handling. All fungicides were evaluated using the aforementioned method for their activity vs. all target diseases, unless stated otherwise. Wheat leaf blotch and brown rust activity were also evaluated using track spray applications, in which case the fungicides were formulated as EC formulations, containing 0.1% Trycol 5941 in the spray solutions. Wheat plants (variety Yuma) were grown from seed in a greenhouse in 50% mineral soil/50% soil-less Metro mix until the first leaf was fully emerged, with 7-10 seedlings per pot. These plants were inoculated with an aqueous spore suspension of Septoria tritici either prior to or after fungicide treatments. After inoculation the plants were kept in 100% relative humidity (one day in a dark dew chamber followed by two to three days in a lighted dew chamber at 20° C.) to permit spores to germinate and infect the leaf. The plants were then transferred to a greenhouse set at 20° C. for disease to develop. When disease symptoms were fully expressed on the 1st leaves of untreated plants, infection levels were assessed on a scale of 0 to 100 percent disease severity. Percent disease control was calculated using the ratio of disease severity on treated plants relative to untreated plants. Evaluation of Fungicidal Activity: Barley Scald (Rhyncosporium secalis; Bayer Code […]) Barley seedlings (variety Harrington) were propagated in soil-less Metro mix, with each pot having 8 to 12 plants, and used in the test when first leaf was fully emerged. Test plants were inoculated by an aqueous spore suspension of Rhyncosporium secalis 24 hr after fungicide treatments. After inoculation the plants were kept in a dew room at 20° C. with 100% relative humidity for 48 hr. The plants were then transferred to a greenhouse set at 20° C. for disease to develop. Fungicide formulation, application and disease assessment on the sprayed leaves followed the procedures as described in the Example A.

[1] = system: Glomerella lagenarium; Anamorph: Colletotrichum lagenarium; experiment: Fungicidal activity: Cucumber Anthracnose (COLLLA)
Protocol: Technical grades of materials were dissolved in acetone, which were then mixed with nine volumes of water containing 110 ppm Triton X-100. The fungicide solutions were applied onto wheat seedlings using an automated booth sprayer to run-off. All sprayed plants were allowed to air dry prior to further handling. All fungicides were evaluated using the aforementioned method for their activity vs. all target diseases, unless stated otherwise. Wheat leaf blotch and brown rust activity were also evaluated using track spray applications, in which case the fungicides were formulated as EC formulations, containing 0.1% Trycol 5941 in the spray solutions. Wheat plants (variety Yuma) were grown from seed in a greenhouse in 50% mineral soil/50% soil-less Metro mix until the first leaf was fully emerged, with 7-10 seedlings per pot. These plants were inoculated with an aqueous spore suspension of Septoria tritici either prior to or after fungicide treatments. After inoculation the plants were kept in 100% relative humidity (one day in a dark dew chamber followed by two to three days in a lighted dew chamber at 20° C.) to permit spores to germinate and infect the leaf. The plants were then transferred to a greenhouse set at 20° C. for disease to develop. When disease symptoms were fully expressed on the 1st leaves of untreated plants, infection levels were assessed on a scale of 0 to 100 percent disease severity. Percent disease control was calculated using the ratio of disease severity on treated plants relative to untreated plants. Evaluation of Fungicidal Activity: Cucumber Anthracnose (Glomerella lagenarium; Anamorph: Colletotrichum lagenarium; Bayer Code COLLLA) Cucumber seedlings (variety Bush Pickle) were propagated in soil-less Metro mix, with each pot having one plant, and used in the test when 12 to 14 days old. Test plants were inoculated with an aqueous spore suspension of Colletotrichum lagenarium 24 hr after fungicide treatments. After inoculation the plants were kept in a dew room at 22° C. with 100% relative humidity for 48 hr to permit spores to germinate and infect the leaf. The plants were then transferred to a growth room set at 22° C. for disease to develop. Fungicide formulation, application and disease assessment on the sprayed leaves followed the procedures as described in the Example A.

Alternaria solani = experiment: Fungicidal activity: Tomato Early Blight (ALTESO)
Protocol: Technical grades of materials were dissolved in acetone, which were then mixed with nine volumes of water containing 110 ppm Triton X-100. The fungicide solutions were applied onto wheat seedlings using an automated booth sprayer to run-off. All sprayed plants were allowed to air dry prior to further handling. All fungicides were evaluated using the aforementioned method for their activity vs. all target diseases, unless stated otherwise. Wheat leaf blotch and brown rust activity were also evaluated using track spray applications, in which case the fungicides were formulated as EC formulations, containing 0.1% Trycol 5941 in the spray solutions. Wheat plants (variety Yuma) were grown from seed in a greenhouse in 50% mineral soil/50% soil-less Metro mix until the first leaf was fully emerged, with 7-10 seedlings per pot. These plants were inoculated with an aqueous spore suspension of Septoria tritici either prior to or after fungicide treatments. After inoculation the plants were kept in 100% relative humidity (one day in a dark dew chamber followed by two to three days in a lighted dew chamber at 20° C.) to permit spores to germinate and infect the leaf. The plants were then transferred to a greenhouse set at 20° C. for disease to develop. When disease symptoms were fully expressed on the 1st leaves of untreated plants, infection levels were assessed on a scale of 0 to 100 percent disease severity. Percent disease control was calculated using the ratio of disease severity on treated plants relative to untreated plants. Evaluation of Fungicidal Activity: Tomato Early Blight (Alternaria solani; Bayer Code […]) Tomato plants (variety Outdoor Girl) were propagated in soil-less Metro mix, with each pot having one plant, and used when 12 to 14 days old. Test plants were inoculated with an aqueous spore suspension of Alternaria solani 24 hr after fungicide treatments. After inoculation the plants were kept in 100% relative humidity (one day in a dark dew chamber followed by two to three days in a lighted dew chamber at 20° C.) to permit spores to germinate and infect the leaf. The plants were then transferred to a growth room at 22° C. for disease to develop. Fungicide formulation, application and disease assessment on the sprayed leaves followed the procedures as described in the Example A.

| SMILES | RHYNSE disease control rating (Rhyncosporium secalis) | COLLLA disease control rating [1] | ALTESO disease control rating (Alternaria solani) |
| --- | --- | --- | --- |
| CCCC[C@@H]1[C@@H](Cc2ccccc2)COC[C@H](NC(=O)c2nccc(OC)c2OCOC(=O)C(C)C)C(=O)O[C@H]1C [compound 1] | A (>70) | A (>70) | A (>70) |
| COc1ccnc(C(=O)N[C@H]2COC[C@H](CC3CC3)[C@@H](c3ccccc3)[C@H](C)OC2=O)c1OC(C)=O [compound 100] | B (≤70) | A (>70) | A (>70) |
| CCCC[C@@H]1[C@@H](Cc2ccc(C(F)(F)F)cc2)COC[C@H](NC(=O)c2nccc(OC)c2OCOC(C)=O)C(=O)O[C@H]1C [compound 16] | A (>70) | A (>70) | A (>70) |
| COc1ccnc(C(=O)N[C@H]2COC[C@H](c3ccccc3)[C@@H](c3ccccc3)[C@H](C)OC2=O)c1OCOC(C)=O [compound 7] | – | A (>70) | A (>70) |
| COc1ccnc(C(=O)N[C@H]2COC[C@H](Cc3ccccc3)[C@@H](Cc3ccccc3)[C@H](C)OC2=O)c1OC(C)=O [compound 27] | A (>70) | A (>70) | A (>70) |
| COc1ccnc(C(=O)N[C@H]2COC[C@H](Cc3ccccc3)[C@@H](Cc3ccccc3)[C@H](C)OC2=O)c1OCOC(C)=O [Cmpd. 3, ((2-(((3S,7R,8R,9S)-7,8-dibenzyl-9-methyl-2-oxo-1,5-dioxonan-3-yl)carbamoyl)-4-methoxypyridin-3-yl)oxy)methyl acetate] | – | A (>70) | A (>70) |
